Read-outs that look alike come from different tables or passages of the source.
Assays:
rat A1 receptors (rA1) = molecular target: T1, rat A1 receptors (rA1) (Rattus norvegicus, UniProt P25099); test: Displacement of [3H]R-PIA binding in rat brain (cerebral cortical) membranes; conditions: for Ki: read-out: rA1 Ki or IC50
T1 construct: to A1 receptors from rat cerebral cortical membranes; from tissue; host or cells: rat cerebral cortical (brain) membranes
T1 sequence (P25099 1-326): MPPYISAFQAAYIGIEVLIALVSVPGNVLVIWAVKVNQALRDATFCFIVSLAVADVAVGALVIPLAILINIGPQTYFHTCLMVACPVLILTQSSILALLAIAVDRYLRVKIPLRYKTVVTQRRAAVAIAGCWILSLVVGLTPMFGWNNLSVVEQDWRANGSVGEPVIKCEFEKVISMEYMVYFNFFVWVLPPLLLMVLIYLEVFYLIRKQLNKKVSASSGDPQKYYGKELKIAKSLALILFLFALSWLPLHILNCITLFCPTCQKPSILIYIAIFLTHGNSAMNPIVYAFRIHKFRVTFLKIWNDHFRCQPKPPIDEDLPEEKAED
Protocol: (§1) Bruns, R. F. et al., Naunyn-Schmiedeberg's Arch. […] Binding of [^3H]R-N^6-phenylisopropyladenosine. Schwabe, U. et al., Naunyn-Schmiedeberg's Arch. […] (Dupont NEN, Boston, Mass.) to A2A receptors from rat striatal membranes was performed as described. […] All non-radioactive compounds were initially dissolved in DMSO, and diluted with buffer to the final concentration, where the amount of DMSO never exceeded 2%. Incubations were terminated by rapid filtration over Whatman GF/B filters, using a Brandell cell harvester (Brandell, Gaithersburg, Md.). The tubes were rinsed three times with 3 mL buffer each.
(§2) At least six different concentrations of competitor, spanning 3 orders of magnitude adjusted appropriately for the IC50 of each compound, were used. IC50 values, calculated with the nonlinear regression method implemented in (Graph-Pad Prism, San Diego, Calif.), were converted to apparent Ki values as described. Linden, J., J. Cycl. Nucl.

rat A2A receptors (rA2A) = molecular target: T2, rat A2A receptors (rA2A) (Rattus norvegicus, UniProt P30543); test: Displacement of [3H]CGS 21680 binding in rat striatal membranes; conditions: for Ki: read-out: rA2A Ki or IC50
T2 construct: to A2A receptors from rat striatal membranes was performed as described; from tissue; host or cells: rat striatal membranes
T2 sequence (P30543 whole entry): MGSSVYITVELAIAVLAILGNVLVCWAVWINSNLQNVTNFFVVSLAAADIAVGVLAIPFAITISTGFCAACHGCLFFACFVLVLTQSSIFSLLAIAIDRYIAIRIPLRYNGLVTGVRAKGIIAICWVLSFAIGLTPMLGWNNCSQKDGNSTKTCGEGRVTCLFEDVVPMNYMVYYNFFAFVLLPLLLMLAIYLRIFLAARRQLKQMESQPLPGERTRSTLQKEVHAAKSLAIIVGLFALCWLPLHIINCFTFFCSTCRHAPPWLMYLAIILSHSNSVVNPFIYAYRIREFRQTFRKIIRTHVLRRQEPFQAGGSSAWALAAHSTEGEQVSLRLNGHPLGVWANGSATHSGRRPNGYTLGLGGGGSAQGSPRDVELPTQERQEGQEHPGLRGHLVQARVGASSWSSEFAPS
Protocol: as §1, §2

[1] = molecular target: T3, human A2B receptors (hA2B) (Homo sapiens, UniProt P29275); test: Radioligand binding ([125I]ABOPX / [3H]ZM241385) at human A2B receptors expressed in HEK-293 cells; conditions: for Ki: read-out: hA2B Ki or IC50
T3 construct: expressed in transfected cells; host or cells: HEK-293 (HEK-A2B, G418-selected)
T3 sequence (P29275 1-332): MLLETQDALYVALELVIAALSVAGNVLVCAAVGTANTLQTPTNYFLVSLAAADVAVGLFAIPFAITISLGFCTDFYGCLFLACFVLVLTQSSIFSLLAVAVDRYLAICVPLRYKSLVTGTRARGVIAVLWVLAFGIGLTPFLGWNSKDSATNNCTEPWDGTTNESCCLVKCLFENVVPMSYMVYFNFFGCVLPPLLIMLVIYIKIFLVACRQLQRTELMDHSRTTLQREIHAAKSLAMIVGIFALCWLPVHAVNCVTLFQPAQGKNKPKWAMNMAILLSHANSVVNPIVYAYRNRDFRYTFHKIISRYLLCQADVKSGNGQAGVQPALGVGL

human A3 receptors (hA3) = molecular target: T4, human A3 receptors (hA3) (Homo sapiens, UniProt P0DMS8); test: Displacement of [125I]ABA binding at human A3 receptors expressed in HEK-293 cells; conditions: read-out: hA3 Ki or IC50
T4 construct: expressed in transfected cells; host or cells: HEK-293
T4 sequence (P0DMS8 1-318): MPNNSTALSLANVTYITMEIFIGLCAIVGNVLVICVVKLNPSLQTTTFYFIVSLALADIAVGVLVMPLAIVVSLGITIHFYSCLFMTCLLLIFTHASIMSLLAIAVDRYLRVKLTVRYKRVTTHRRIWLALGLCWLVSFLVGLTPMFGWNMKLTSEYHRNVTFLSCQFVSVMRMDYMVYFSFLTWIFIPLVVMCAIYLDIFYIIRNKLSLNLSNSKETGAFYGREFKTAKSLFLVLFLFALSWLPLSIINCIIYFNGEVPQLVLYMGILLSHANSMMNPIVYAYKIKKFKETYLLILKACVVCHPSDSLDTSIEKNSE

[2] = molecular target: T5, recombinant human A1 receptors (hA1) (Homo sapiens, UniProt P30542); test: Radioligand binding ([3H]CPX) at recombinant human A1 receptors in HEK-293 cells
T5 sequence (P30542 1-326): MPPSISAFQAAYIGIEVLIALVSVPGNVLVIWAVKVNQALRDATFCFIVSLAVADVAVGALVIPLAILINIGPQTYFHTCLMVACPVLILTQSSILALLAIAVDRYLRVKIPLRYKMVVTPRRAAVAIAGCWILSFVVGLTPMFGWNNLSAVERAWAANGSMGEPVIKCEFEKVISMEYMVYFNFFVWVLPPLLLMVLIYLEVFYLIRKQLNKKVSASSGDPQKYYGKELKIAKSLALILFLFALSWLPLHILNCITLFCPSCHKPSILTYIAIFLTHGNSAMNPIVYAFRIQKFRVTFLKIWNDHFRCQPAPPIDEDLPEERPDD
Protocol: (§3) The potency of the xanthine derivatives at human A2B receptors was evaluated using two binding assays. […] In order to determine selectivity, the xanthines were evaluated using standard binding assays at A1, A2A, and A3 receptors.

[3] = molecular target: recombinant human A2A receptors (hA2A) (Homo sapiens, UniProt P29274); test: Radioligand binding (125I-ZM241385) at recombinant human A2A receptors in HEK-293 cells
recombinant human A2A receptors (hA2A), sequence (P29274 whole entry): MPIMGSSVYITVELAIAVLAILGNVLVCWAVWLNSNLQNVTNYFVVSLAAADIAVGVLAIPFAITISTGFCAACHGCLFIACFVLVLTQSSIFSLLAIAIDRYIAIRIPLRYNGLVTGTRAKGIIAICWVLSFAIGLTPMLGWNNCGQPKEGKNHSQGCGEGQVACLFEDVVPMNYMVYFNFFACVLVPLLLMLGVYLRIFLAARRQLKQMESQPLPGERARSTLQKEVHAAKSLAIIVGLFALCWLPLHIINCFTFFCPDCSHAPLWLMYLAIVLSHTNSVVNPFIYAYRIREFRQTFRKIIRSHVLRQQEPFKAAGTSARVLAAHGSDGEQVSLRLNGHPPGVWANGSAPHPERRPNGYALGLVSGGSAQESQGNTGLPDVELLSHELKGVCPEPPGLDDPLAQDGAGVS
Protocol: as §3

[4] = Table 1, [3H]R-PIA, rat brain membranes
[5] = Table 1, [3H]CGS 21680, rat striatal membranes
[6] = read-out: hA1 Ki, values marked (h), Table 1, recombinant human A1, HEK 293

Compound	melting point [°C]	Ki (rat A1 receptors (rA1); Table 2) [nM]	Ki (rat A2A receptors (rA2A); Table 2) [nM]	Ki ([1]; Table 2) [nM]	also measured
CCCn1c(=O)c2[nH]c(-c3ccc(OCC(=O)ON4C(=O)CCC4=O)cc3)nc2n(CCC)c1=O [Compound 4b]	–	–	–	–	Ki (rat A1 receptors (rA1); [4]): 153 nM; Ki (rat A2A receptors (rA2A); [5]): 127 nM; Ki ([1]; Table 1, [125I]ABOPX, HEK-293): 9.75 ± 4.8 nM; Ki (human A3 receptors (hA3); Table 1, [125I]ABA, HEK-293): 227 nM
CCCn1c(=O)c2[nH]c(-c3ccc(C=CC(=O)O)cc3)nc2n(CCC)c1=O [Compound 8]	–	–	–	–	Ki (rat A2A receptors (rA2A); [5]): 800 nM; Ki ([1]; Table 1, [125I]ABOPX, HEK-293): 60 ± 2 nM; Ki (human A3 receptors (hA3); Table 1, [125I]ABA, HEK-293): 30 ± 14 nM; Ki [2, 6]: 140 ± 3 nM; Ki ([3]; read-out: hA2A Ki, values marked (h), Table 1, recombinant human A2A, HEK 293): 190 ± 71 nM
O=C(O)C=Cc1ccc(-c2nc3c([nH]2)c(=O)n(CC2CCCCC2)c(=O)n3CC2CCCCC2)cc1 [Compound 9]	–	–	–	–	Ki (rat A1 receptors (rA1); [4]): 602 ± 24 nM; Ki ([1]; Table 1, [125I]ABOPX, HEK-293): 199 ± 52 nM; Ki (human A3 receptors (hA3); Table 1, [125I]ABA, HEK-293): 922 ± 399 nM; Ki [2, 6]: 4890 nM
CCCn1c(=O)c2[nH]c(-c3ccc(OCC(N)=O)cc3)nc2n(CCC)c1=O [Compound 11]	–	20 ± 3.8	76.3 ± 14	–	more potent than the carboxylic acid 4a at A1 receptors (rat A1 receptors (rA1); relative to 4a): 3 fold; more potent than the carboxylic acid 4a at A2A receptors (rat A2A receptors (rA2A); relative to 4a): 29 fold; potency versus the carboxylic acid 4a at A2B receptors ([1]; relative to 4a): equipotent
CCCn1c(=O)c2[nH]c(-c3ccc(OCC(=O)N(CC(=O)OCC)CC(=O)OCC)cc3)nc2n(CCC)c1=O [Compound 17, 8-[4-[(N,N-bis(Ethoxycarbonylmethyl)carbamoylmethyl)oxy]-phenyl]-1,3-di-(n-propyl)xanthine]	225	26.8 ± 2.4	999 ± 144	43.4 ± 8.4	–
CCCn1c(=O)c2[nH]c(-c3ccc(OCC(=O)Nc4ccc(C(C)=O)cc4)cc3)nc2n(CCC)c1=O [Compound 20, 8-[4-[((4-Acetylphenyl)carbamoylmethyl)oxy]phenyl]-1,3-di-(n-propyl)xanthine]	–	37.6 ± 4	548 ± 183	1.39 ± 0.3	selectivity for human A2B versus rat A1 receptors [1]: 27 fold; Ki (human A3 receptors (hA3); Table 2): 230 ± 23 nM; Ki ([2]; read-out: hA1 Ki or IC50, Table 2): 157 ± 8 nM; Ki ([3]; read-out: hA2A Ki or IC50, Table 2): 112 ± 37 nM
CCCn1c(=O)c2[nH]c(-c3ccc(OCC(=O)Nc4ccc(C(N)=O)cc4)cc3)nc2n(CCC)c1=O [Compound 22, 8-[4-[((4-Carbamoyl)phenylcarbamoylmethyl)oxy]phenyl]-1,3-di-(n-propyl)xanthine]	> 310	10.2 ± 2.5	683 ± 167	7.75 ± 1.11	–
CCCn1c(=O)c2[nH]c(-c3ccc(OCC(=O)Nc4ccc(C(=O)NC)cc4)cc3)nc2n(CCC)c1=O [Compound 23, 8-[4-[((4-Methylcarbamoyl)phenylcarbamoylmethyl)oxy]phenyl]-1,3-di-(n-propyl)xanthine]	> 310	24.8 ± 1.8	98.1 ± 49.6	3.34 ± 0.51	–
CCCn1c(=O)c2[nH]c(-c3ccc(OCC(=O)Nc4ccc(C(=O)O)cc4)cc3)nc2n(CCC)c1=O [Compound 24, 8-[4-[((4-Carboxy)phenylcarbamoylmethyl)oxy]phenyl]-1,3-di-(n-propyl)xanthine]	> 310	145 ± 28	220 ± 79	16.1 ± 4.7	–
CCCn1c(=O)c2[nH]c(-c3ccc(OCC(=O)Nc4ccc(C)cc4)cc3)nc2n(CCC)c1=O [Compound 25]	–	17.5 ± 5	126 ± 38	1.88 ± 0.76	–
CCCn1c(=O)c2[nH]c(-c3ccc(OCC(=O)Nc4ccc(O)cc4)cc3)nc2n(CCC)c1=O [Compound 26]	–	5.88 ± 1.06	63.3 ± 20.4	3.71 ± 0.76	–
CCn1c(=O)c2[nH]c(-c3ccc(OCC(=O)Nc4ccc(C)cc4)cc3)nc2n(CC)c1=O [Compound 39]	–	–	–	–	Ki (rat A1 receptors (rA1); Table 3): 34.9 ± 0.3 nM; Ki (rat A2A receptors (rA2A); Table 3): 71.1 ± 7.7 nM; Ki ([1]; Table 3): 1.78 ± 0.43 nM

The next lines start with results.

melting point [°C]	Ki (rat A1 receptors (rA1); Table 2) [nM]	Ki (rat A2A receptors (rA2A); Table 2) [nM]	Ki ([1]; Table 2) [nM]	Compound	also measured
308 to 309	–	–	–	CC(=O)c1ccccc1NC(=O)/C=C/c1ccc(-c2nc3c([nH]2)c(=O)n(Cc2ccccc2)c(=O)n3Cc2ccccc2)cc1 (hydrate or solvate) [Compound 37, 8-[4-(2-(2-Acetylphenyl)carbamoyl-trans-vinyl)phenyl]-1,3-dibenzylxanthine]	–
> 310	–	–	–	O=C(O)COc1ccc(-c2nc3c([nH]2)c(=O)n(Cc2ccccc2)c(=O)n3Cc2ccccc2)cc1 [Compound 7, 8-[4-[(Carboxymethyl)oxy]phenyl]-1,3-dibenzyl-xanthine]	Ki (rat A1 receptors (rA1); [4]): 679 ± 190 nM; rA2A % displacement of specific binding (rat A2A receptors (rA2A); Table 1, at 100,000 nM): 25 ± 3%; Ki ([1]; Table 1, [125I]ABOPX, HEK-293): 1760 nM
> 310	–	–	–	O=C(O)/C=C/c1ccc(-c2nc3c([nH]2)c(=O)n(Cc2ccccc2)c(=O)n3Cc2ccccc2)cc1 [Compound 10, 8-(4-(2-Carboxy-trans-vinyl)phenyl)-1,3-dibenzyl-xanthine]	Ki (rat A1 receptors (rA1); [4]): 201 ± 23 nM; Ki (rat A2A receptors (rA2A); [5]): 4450 nM; Ki ([1]; Table 1, [125I]ABOPX, HEK-293): 469 ± 23 nM
269 to 270	120 ± 21	–	33.7 ± 17	CCCn1c(=O)c2[nH]c(-c3ccc(OCC(=O)NC(c4ccccc4)c4ccccc4)cc3)nc2n(CCC)c1=O [Compound 14, 8-[4-[(Diphenylmethylcarbamoylmethyl)oxy]phenyl]-1,3-di-(n-propyl)xanthine]	rA2A % displacement (rat A2A receptors (rA2A); Table 2, at (1000)): 20 ± 8%
215	218 ± 80	497 ± 250	5.42 ± 1.71	CCCn1c(=O)c2[nH]c(-c3ccc(OCC(=O)N(C)c4ccccc4)cc3)nc2n(CCC)c1=O [Compound 16, 8-[4-[(N-Methyl-N-phenylcarbamoylmethyl)oxy]phenyl]-1,3-di-(n-propyl)xanthine]	selectivity for human A2B versus rat A1 receptors [1]: 40 fold; selectivity for human A2B versus rat A2A receptors [1]: 92 fold; reduction of affinity by N-methylation ([1]; N-methyl anilide versus anilide, human A2B): 3.7 fold
305	–	–	–	CC(=O)c1ccccc1NC(=O)/C=C/c1ccc(-c2nc3c([nH]2)c(=O)n(CC2CCCCC2)c(=O)n3CC2CCCCC2)cc1 [Compound 36, 8-[4-(2-(2-Acetylphenyl)carbamoyl-trans-vinyl)phenyl]-1,3-di-(cyclohexylmethyl)xanthine]	–
284	–	–	–	CC(=O)c1ccccc1NC(=O)COc1ccc(-c2nc3c([nH]2)c(=O)n(Cc2ccccc2)c(=O)n3Cc2ccccc2)cc1 [Compound 38, 8-[4-[((2-Acetylphenyl)carbamoylmethyl)oxy]phenyl]-1,3-dibenzyl-xanthine]	–
